Test results as given in patent US20240408211A1, “COMPOSITIONS AND METHODS OF AMELIORATING AVERSIVENESS OF AVERSIVE STIMULI BY INHIBITION OF PURINERGIC RECEPTORS” (Monell Chemical Senses Center, priority 2021, published 2024).
pIC50: −log10 of the molar value. Like-named read-outs stand apart in the source and are kept apart here.

How the values were obtained:
rats = settings: cited from earlier work
[1] = clinical trial; cited from earlier work
[2] = in vivo; cited from earlier work
patients = settings: cited from earlier work
P2X2/3 = biological target: T1, P2X2/3 (Homo sapiens, UniProt P56373+Q9UBL9); assay: P2X2/3 stable HEK293 cell lines responding to α,β-meATP (screening assay); format: cell-based
T1 construct: expressed in transfected cells; host or cells: HEK293
T1 sequence (Q9UBL9 1-471): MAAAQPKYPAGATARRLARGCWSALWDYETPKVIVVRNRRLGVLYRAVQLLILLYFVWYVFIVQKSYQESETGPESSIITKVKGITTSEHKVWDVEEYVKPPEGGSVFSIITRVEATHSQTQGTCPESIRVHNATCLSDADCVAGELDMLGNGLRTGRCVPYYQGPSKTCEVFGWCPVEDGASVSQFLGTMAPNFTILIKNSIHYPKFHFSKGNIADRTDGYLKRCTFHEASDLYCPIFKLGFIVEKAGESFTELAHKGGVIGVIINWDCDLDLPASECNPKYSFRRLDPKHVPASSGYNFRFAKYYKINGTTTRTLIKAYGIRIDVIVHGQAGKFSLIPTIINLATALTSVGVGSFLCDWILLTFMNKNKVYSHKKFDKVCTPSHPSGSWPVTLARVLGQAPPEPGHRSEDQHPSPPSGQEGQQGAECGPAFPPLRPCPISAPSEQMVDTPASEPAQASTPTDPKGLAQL
T1 sequence (P56373 1-397): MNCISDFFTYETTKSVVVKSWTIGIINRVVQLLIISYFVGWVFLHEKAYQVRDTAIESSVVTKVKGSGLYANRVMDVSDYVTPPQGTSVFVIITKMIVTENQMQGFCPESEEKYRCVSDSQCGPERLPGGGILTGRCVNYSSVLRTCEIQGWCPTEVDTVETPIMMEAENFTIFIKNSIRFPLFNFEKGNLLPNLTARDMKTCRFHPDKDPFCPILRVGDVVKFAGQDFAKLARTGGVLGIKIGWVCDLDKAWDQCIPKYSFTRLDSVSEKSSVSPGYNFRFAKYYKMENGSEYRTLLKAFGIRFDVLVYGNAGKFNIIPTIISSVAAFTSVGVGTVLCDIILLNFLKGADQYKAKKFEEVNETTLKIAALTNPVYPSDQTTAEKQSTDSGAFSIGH
Protocol: In this study, we built stable cell lines expressing P2X2/3 in HEK293 cells via transfection with either P2X2-Neo or P2X3-Zeo constructs, following which selection was performed using Zeocin, G418. Picked clones were grown out from single cells (cultured continuously in the presence of Zeocin and G418) using cloning rings.
The resulted stable cell lines are used for characterizing putative taste-blockers.

Protocol for humans: In some experiments, we used a regimen of two 1-minute rinses with 500 μM AF-353 composition (i.e., oral topical administration).
In this study, we tested an AF-353 composition in humans as an oral rinse after receiving IRB approval for its use. First, we tested rinsing 100 μM (0.04 mg/mL) orally for 2 minutes as 4×30 sec rinses with expectoration. We tested before and after sour, bitter, sweet, and salty solutions (quinine HCl, NaCl, Praziquantal, sucrose, CO2).
Next, we tested rinsing 500 μM (0.2 mg/mL) AF-353 for two minutes, in 2×1 min increment rinses with expectoration.

O=C(NCC12CC3CC(CC(C3)C1)C2)c1cc(CCCNCCCO)ccc1Cl [AZD-9056]
taste block (humans; various concentration, negative control composition): did not block taste

CNC(=O)c1cc(F)c(-c2nc3cc(C)ccn3c2C[C@@H]2CCCN(C(=O)OC)C2)c(F)c1 [BLU-5937, Methyl (S)-3-((2-(2,6-difluoro-4-(methylcarbamoyl)phenyl)-7-methylimidazo[1,2-a]pyridin-3-yl)methyl)piperidine-1-carboxylate]
influence on taste (rats; rat, 10-20 mg/kg intraperitoneally): did not influence taste
behaviour towards 0.3 mM quinine hydrochloride in two-bottle choice (rats; rats, 10 or 20 mg/kg ip, 15-min test): avoided the quinine

Cc1cnc(-c2cc(O[C@@H]3CCOC3)cc(C(=O)N[C@H](C)c3cnc(C(F)(F)F)nc3)c2)s1 [eliapixant]
taste-related adverse events (primarily dysgeusia) [1]: caused taste-related adverse events
effects on ratings of taste intensity measured using taste strips [2]: no concerted effects

COc1cc(C(C)C)c(Oc2cnc(N)nc2N)cc1S(N)(=O)=O [AF-219, 5-[(2,4-diaminopyrimidin-5-yl)oxy]-2-methoxy-4-(propan-2-yl)benzene-1-sulfonamide]
taste disturbances (patients; 600 mg twice daily): taste disturbances in all patients tested
taste disturbances (patients; doses as low as 7.5-50 mg twice daily): also cause taste disturbances, albeit less severe
taste block (humans; 500 μM, preliminary test): did not block taste

Nc1ncnc2c1ncn2[C@@H]1O[C@H](COP(=O)(O)CP(=O)(O)OP(=O)(O)O)[C@@H](O)[C@H]1O [α,β-meATP]
pIC50 (P2X2/3; P2X2/3 stable Line 2): 5.70
pIC50 (P2X2/3; P2X2/3 stable Line 6): 5.68
pIC50 (P2X2/3; P2X2/3 stable Line 9): 5.41
pIC50 (P2X2/3; P2X2/3 stable Line 12): 5.75
pIC50 (P2X2/3; P2X2/3 stable Line 24): 5.56
